Measured values: US6395906B1, “Intermediates to pesticidal 1-arylpyrazoles” (Rhone-Poulenc Inc., priority 1995, dated 2002)

Experiments:
Format in all cases: in vivo
[1] = tested on: house fly (Musca domestica); assay: House fly (HF) bait test; details: sucrose bait, 100 or 250 ppm; adult flies, mortality after 24 hours
Procedure: (§1) For the tick, aphids, souther armyworm, tobacco budworm, house fly, Mexican bean beetle, American cockroach, cat flea, souther corn rootworm, western corn rootworm, black cutworm, and southern root-knot nematode, a solution or suspension was prepared by adding the test compound to a solution of dimethylformamide, acetone, emulsifiers which are alkylaryl polyether alcohols organic sulfonates, and water. The result was a 100 or 500 ppm concentration of the test compound.
For house fly tests, the water-acetone-DMF-emulsifier solution was adjusted with a 20% by weight aqueous solution of sucrose to provide a final 100 or 250 ppm concentration of the test compound.
House fly (HF): Four to six day old adult house flies were used. The files were immobilized by anesthetizing with carbon dioxide. A bait cup was prepared which contained the 100 or 250 ppm test compound formulation/sucrose solution and one or two absorbent cotton pad(s). As an untreated control, a water-acetone-DMF-emulsifier-sucrose solution containing no test compound was applied in a similar manner. The bait cup was introduced inside the cage prior to admitting 12-25 anesthetized flies. Mortality was assessed after 24 hours.

[2] = tested on: black cutworm (Agrotis ipsilon); assay: Black cutworm (BCW) soil test; details: soil concentration 2.5, 5, 6.75 or 10 ppm; mortality eight days after infestation
Procedure: as §1
(§2) For southern corn rootworm and black cutworm tests, the water-acetone-DMF-emulsifier solution was adjusted for a treatment rate of 2.5, 5, 6.75 or 10 ppm.
(§3) Southern corn rootworm (SCRW), Black cutworm (BCW): Corn seeds were placed in a glass jar and covered with dry sandy loam soil. The 500 ppm test formulation was applied for a soil concentration of 2.5, 5, 6.75 or 10 ppm. As an untreated control, an aliquot of a water-acetone-DMF-emulsifier solution containing no test compound was applied in a similar manner. After incubating covered for 24 hours, the soil was mixed and inoculated with approximately 25 southern corn rootworm eggs. Following an additional 48 hours, two late second to early third instar black cutworms were placed in the jar with a portion of insect diet. Eight days after infestation, mortality was assessed visually for cutworm and by Berlese funnel extraction for rootworm.

[3] = tested on: southern corn rootworm (Diabrotica undecimpunctata howardi); assay: Southern corn rootworm (SCRW) soil test; details: soil concentration 2.5, 5, 6.75 or 10 ppm; mortality eight days after infestation
Procedure: as §1, §2, §3

[4] = tested on: tobacco budworm (Heliothis virescens); assay: Tobacco budworm (TBW) treated cotton leaf test; details: cotton leaves, 100 ppm; second instar larvae, five days
Procedure: as §1
Tobacco budworm (TBW): Cotton leaves were wet to runoff with the 100 ppm test compound formulation. As an untreated control, a water-acetone-DMF-emulsifier solution containing no test compound was also applied wet to runoff to cotton leaves. Ten randomly selected second instar tobacco budworm larvae were introduced into plastic containers in which moist dental wicks and the dry treated leaves had been placed. The cups were closed and held for five days. Larvae which were unable to move the length of the body, even upon stimulation by prodding, were considered dead.

[5] = tested on: western corn rootworm (Diabrotica virgifera virgifera); assay: Western corn rootworm (WCRW) soil test; details: soil concentration 0.15 or 0.5 ppm; neonate larvae, mortality six days after infestation
Procedure: as §1
For the western corn rootworm test, the water-acetone-DMF-emulsifier solution was adjusted for a treatment rate of 0.15 or 0.5 ppm.
Western corn rootworm (WCRW): The 500 ppm test formulation was applied to dry sandy loam soil contained in a glass jar for a soil concentration of 0.15 or 0.5 ppm. As an untreated control, an aliquot of a water-acetone-DMF-emulsifier solution containing no test compound was applied in a similar manner. After incubating covered for 24 hours, the soil was mixed and four germinated corn seedlings were added to the jar. Ten neonate western corn rootworm larvae were placed in the jar. Six days after infestation, mortality was assessed by Berlese funnel extraction.

[6] = tested on: cotton aphid (Aphis gossypii); assay: Cotton aphid systemic test (CA-Sys); details: soil drench 10.0 ppm, aphid control rated three and six days after infestation
From the text: (§4) For cotton aphid systemic tests and black cutwork—systemic tests, the water-acetone-DMF-emulsifier solution was adjusted for a treatment rate of 10.0 ppm soil concentration.
Cotton aphid—systemic test (CA-Sys): Cotton seeds were placed on top of the soil surface in pots containing moist soil. The test compound solution was applied as a drench to the top of the soil and seeds for a treatment rate equivalent to 10.0 ppm soil concentration. As an untreated control, an aliquot of a water-acetone-DMF-emulsifier solution containing no test compound was applied in a similar manner. The soil surface and seeds were covered with moist soil. The pots were held in the greenhouse for the duration of the bioassay. When the cotyledons of the cotton were expanded (approximately 7 days after planting), the cotton was infested with approximately 25 cotton aphids (mixed population). The plant were rated for aphid control three and six days after infestation.

[7] = tested on: cotton aphid (Aphis gossypii); assay: Cotton aphid (CA) foliar spray test; details: cotton plants wet to runoff, 100 or 500 ppm; dead aphids counted after three days
Procedure: as §1
Buckthorn aphid (BA) or cotton aphid (CA): Adult and nymphal stages of buckthorn or cotton aphid were reared on potted dwarf nasturtium or cotton plants, respectively. Plants infested with 100-150 aphids were wet to runoff with the 100 or 500 ppm test compound formulation. As an untreated control, a water-acetone-DMF-emulsifier solution containing no test compound was also applied to runoff to infested plants. The treated plants were stored for one day for buckthorn aphid and three days for cotton aphid, after which the dead aphids were counted.

[8] = tested on: greenbug aphid (Schizaphis graminum); assay: Greenbug aphid systemic test (GA-Sys); details: soil drench 10 or 25 ppm, sorghum; aphid control rated one and three days after infestation
From the text: For the greenbug aphid systemic test, the water-acetone-DMF-emulsifier solution was adjusted for a treatment rate of 10 or 25 ppm soil concentration.
Greenburg aphid—systemic test (GA-Sys): Sorghum seeds were placed on top of the soil surface in pots containing moist soil. The test compound solution was applied as a drench to the top of the soil and seeds for a treatment rate equivalent to 10 or 25 ppm soil concentration. As an untreated control, an aliquot of a water-acetone-DMF-emulsifier solution containing no test compound was applied in a similar manner. The soil surface and seeds were covered with moist soil. The pots were held in the greenhouse for the duration of the bioassay. When the sorghum seeds germinated, greenbug aphids were sprinkled evenly over the sorghum pots to about 50 aphids per pot. The plants were rated for aphid control one and three days after infestation.

[9] = tested on: black cutworm (Agrotis ipsilon); assay: Black cutworm systemic test (BCW-Sys); details: soil drench 10.0 ppm, corn seedling clipped ten days after treatment; mortality 4 days after infestation
From the text: as §4
Black cutworm—systemic test (BCW-Sys): Corn seeds were placed on top of the soil surface in pots containing moist soil. The test compound solution was applied as a drench to the top of the soil and seeds for a treatment rate equivalent to 10.0 ppm soil concentration. As an untreated control, an aliquot of water-acetone-DMF-emulsifier solution containing no test compound was applied in a similar manner. The soil surface and seeds were covered with moist soil. The pots were held in the greenhouse for the duration of the bioassay. Ten days after treatment, the corn seedling was clipped and placed in a plastic cup with 2 late second to early third instar black cutworm larvae. Mortality was assessed visually 4 days after infestation.

[10] = tested on: Mexican bean beetle (Epilachna varivestis); assay: Mexican bean beetle (MBB) treated bean leaf test; details: bean leaves, 100 or 500 ppm; second instar larvae, five days
Procedure: as §1
Southern armyworm (SAW), Mexican bean beetle (MBB): Bean leaves were wet to runoff with the 100 or 500 ppm test compound formulation. As an untreated control, a water-acetone-DMF-emulsifier solution containing no test compound was also applied wet to runoff to bean leaves. Five or six randomly selected second instar southern armyworn larvae or Mexican bean bettle larvae were introduced into each plastic container with the dry treated leaves. The container was closed and held for five days. Larvae which were unable to move the length of the body, even upon stimulation by prodding, were considered dead.

[11] = tested on: cat flea (Ctenocephalides felis); assay: Cat flea (CF) treated filter paper contact test; details: 500 ppm, adult fleas, contact mortality 1 day after infestation
Procedure: as §1
Cat flea (CF), dog tick (DT): Filter papers were treated with an aliquot of the 500 ppm test formulation. As an untreated control, an aliquot of a water-acetone-DMF-emulsifier solution containing no test compound was applied in a similar manner. When dry, 2 treated filters were placed in a vial for the flea and another 2 filters in a vial for the tick. Five adult fleas were added to one vial and 5 adult ticks to the second vial. Contact mortality was assessed 1 day after infestation for the flea and 14 days after infestation for the tick.

[12] = tested on: American cockroach (Periplaneta americana); assay: American cockroach (ACR) treated food pellet test; details: food pellets with 500 ppm formulation; nymphs, contact and feeding mortality 1 and 5 days after infestation
Procedure: as §1
American cockroach (ACR): Cat food or dog food pellets were added to jars containing 1-2 mls of the 500 ppm test formulation. As an untreated control, an aliquot of a water-acetone-DMF-emulsifier solution containing no test compound was applied in a similar manner. After 48 hours, roach nymphs were added to the jar. Contact and feeding mortally was assessed 1 and 5 days after infestation.

| SMILES | HF [1] | BCW [2] | SCRW [3] | TBW [4] | WCRW [5] | CA-Sys [6] | CA [7] | GA-Sys [8] | BCW-Sys [9] | MBB [10] | CF [11] | ACR [12] |
| --- | --- | --- | --- | --- | --- | --- | --- | --- | --- | --- | --- | --- |
| N#Cc1nn(-c2c(Cl)cc(C(F)(F)F)cc2Cl)c(C=NN)c1SC(F)(F)F [Compound 3, 5-{(N-amino)iminomethylidenyl}-3-cyano-1-(2,6-dichloro-4-trifluoromethylphenyl)-4-trifluoromethylthiopyrazole] | + (active against 1 or more insects described above up to 100% mortality. This activity is indicated by a “+”) | + (active against 1 or more insects described above up to 100% mortality. This activity is indicated by a “+”) | + (active against 1 or more insects described above up to 100% mortality. This activity is indicated by a “+”) | + (active against 1 or more insects described above up to 100% mortality. This activity is indicated by a “+”) |  |  |  |  |  |  |  |  |
| CON=Cc1c(SC(F)(F)F)c(C#N)nn1-c1c(Cl)cc(C(F)(F)F)cc1Cl [Compound 5, 3-Cyano-1-(2,6-dichloro-4-trifluoromethylphenyl)-5-{(N-methoxy)iminomethylidenyl}-4-trifluoromethylthiopyrazole] | + (active against 1 or more insects described above up to 100% mortality. This activity is indicated by a “+”) |  | + (active against 1 or more insects described above up to 100% mortality. This activity is indicated by a “+”) |  | + (active against 1 or more insects described above up to 100% mortality. This activity is indicated by a “+”) | + (active against 1 or more insects described above up to 100% mortality. This activity is indicated by a “+”) | + (active against 1 or more insects described above up to 100% mortality. This activity is indicated by a “+”) |  |  |  |  |  |
| CC(=O)c1c([S+]([O-])C(F)(F)F)c(C#N)nn1-c1c(Cl)cc(C(F)(F)F)cc1Cl (stereo not shown) [Compound 10, 5-Acetyl-3-cyano-1-(2,6-dichloro-4-trifluoromethylphenyl)-4-trifluoromethylsulfinylpyrazole] |  | + (active against 1 or more insects described above up to 100% mortality. This activity is indicated by a “+”) |  | + (active against 1 or more insects described above up to 100% mortality. This activity is indicated by a “+”) | + (active against 1 or more insects described above up to 100% mortality. This activity is indicated by a “+”) |  |  | + (active against 1 or more insects described above up to 100% mortality. This activity is indicated by a “+”) | + (active against 1 or more insects described above up to 100% mortality. This activity is indicated by a “+”) | + (active against 1 or more insects described above up to 100% mortality. This activity is indicated by a “+”) |  |  |
| CCOC(OCC)c1c(S(=O)(=O)C(F)(F)F)c(C#N)nn1-c1c(Cl)cc(C(F)(F)F)cc1Cl [Compound 19, 3-Cyano-1-(2,6-dichloro-4-trifluoromethylphenyl)-5-diethoxymethyl-4-trifluoromethylsulfonylpyrazole] |  |  |  | + (active against 1 or more insects described above up to 100% mortality. This activity is indicated by a “+”) |  |  |  |  |  |  | + (active against 1 or more insects described above up to 100% mortality. This activity is indicated by a “+”) | + (active against 1 or more insects described above up to 100% mortality. This activity is indicated by a “+”) |
| CCOC(OCC)c1c([S+]([O-])C(F)(F)F)c(C#N)nn1-c1c(Cl)cc(C(F)(F)F)cc1Cl (stereo not shown) [Compound 20, 3-Cyano-1-(2,6-dichloro-4-trifluoromethylphenyl)-5-diethoxymethyl-4-trifluoromethylsulfinylpyrazole] |  |  |  |  |  | + (active against 1 or more insects described above up to 100% mortality. This activity is indicated by a “+”) | + (active against 1 or more insects described above up to 100% mortality. This activity is indicated by a “+”) |  |  |  | + (active against 1 or more insects described above up to 100% mortality. This activity is indicated by a “+”) | + (active against 1 or more insects described above up to 100% mortality. This activity is indicated by a “+”) |
